Patent US5763469A, “Substituted cyclic ureas and derivatives thereof useful as retroviral protease inhibitors” (The DuPont Merck Pharmaceutical Company, priority 1996, dated 1998)
Values after ≈ are worked out from the molar mass of the structure shown.

Test system: HIV-1 (RF)
Assay: HIV RNA assay: microplate based compound evaluation in HIV-1 infected MT-2 cells
Assay type: cell-based
Conditions: Human immunodeficiency virus 1, MT2, 72 h; HIV-1 (RF) infected MT-2 cells, 3 days of culture; virus dilutions were selected to give this value (standardisation of inoculum); read-out: IC90 value (concentration of compound required to reduce the HIV RNA level by 90%)
Procedure: MT-2, CEM, and H9 cells were maintained in RPMI 1640 supplemented with 5% fetal calf serum (FCS), 2 mM L-glutamine and 50 μg/mL gentamycin, all from Gibco. Laboratory strains of HIV-1 (RF, MN and IIIB) were propagated in H9 cells in the same medium. Virus stocks were prepared approximately 1 month after acute infection of H9 cells by clarification of the tissue culture medium and storage of aliquots at -70° C. Infectious titers of HIV-1 (RF) stocks were 1-3×10^7 PFU (plaque forming units)/mL as measured by plaque assay on MT-2 cells (see below). Each aliquot of virus stock used for infection was thawed only once. […]
Cell lysates or purified RNA in 3M or 5M GED were mixed with 5M GED and capture probe to a final guanidinium isothiocyanate concentration of 3M and a final biotin oligonucleotide concentration of 30 nM. […] Immobilized alkaline phosphatase activity was detected by addition of 100 μL of 0.2 mM 4-methylumbelliferyl phosphate (MUBP, JBL Scientific) in buffer δ(2.5M diethanolamine pH 8.9 (JBL Scientific), 10 mM MgCl2, 5 mM zinc acetate dihydrate and 5 mM N-hydroxyethyl-ethylene-diamine-triacetic acid). […] Fluorescence at […] was measured using a microplate fluorometer (Dynateck) exciting at 365 nm.
Compounds to be evaluated were dissolved in DMSO and diluted in culture medium to twice the highest concentration to be tested and a maximum DMSO concentration of 2%. […]

IC90: 0.2 µg/mL (≈ 0.947 µM)
Compound: Nc1ccn([C@H]2CC[C@@H](CO)O2)c(=O)n1 [ddC, dideoxycytidine]
